Experimental data published in publication PMC12587552, “A nitrogen-containing diphyllin derivative C156-P1 exhibited broad-spectrum antiviral activity against Flaviviridae viruses by preventing endosomal acidification” (Antimicrobial Agents and Chemotherapy, 2025).
Where two headings read alike, the source gives them in different places.

How the values were obtained:
HUVEC cells = details: human
SeV = assay type: cell-based, Sendai virus
in vitro = details: African green monkey
VSV-eGFP = assay: microbe, parasite or virus in culture; assay type: cell-based; details: Vesicular stomatitis virus, A549, 24 h, read-out: EC50 against VSV-eGFP
DENV-3 = assay: microbe, parasite or virus in culture; assay type: cell-based, DENV-3 clone DV3syn_4M; details: Dengue virus, read-out: EC50 against DENV-3
ATP6V0A2 = ATP6V0A2 mRNA level by RT-qPCR; assay type: cell-based, human
DENV-2 [1] = assay: microbe, parasite or virus in culture; details: Dengue virus
HCV = assay: microbe, parasite or virus in culture; assay type: cell-based, hepatitis C virus genotype 2a JFH1; details: Hepatitis C virus, Huh-7, 72 h, read-out: EC50 against HCV
V-ATPase = V-ATPase (Homo sapiens, UniProt Q9Y487); assay: ATPase activity assay on lysate of treated cells; assay type: cell-based; details: A549 cells treated 24 h; C156-P1 100 nM or 1000 nM, PHY34 100 nM, Baf-A1 100 nM; 2 µg total cell protein
YFV = assay: microbe, parasite or virus in culture; assay type: cell-based, YFV vaccine strain 17D; details: Yellow fever virus, read-out: EC50 against YFV
DENV-2 [2] = assay: Colocalization of DENV E protein and Rab7A, confocal microscopy; assay type: cell-based, DENV-2 strain 16681; details: A549 cells, DENV-2 MOI = 20, 50 nM, 12 h
DENV-2 [3] = assay: DENV-2 infection in AG129 mice; assay type: in vivo; details: 0.2 mg/kg i.p.
HSV-1-eGFP = assay: microbe, parasite or virus in culture; assay type: cell-based, herpes simplex virus type 1; details: Human alphaherpesvirus 1, A549, 48 h, read-out: EC50 against HSV-1-eGFP
Ad5-eGFP = assay type: cell-based, adenovirus type 5
DENV-2 [4] = details: for SI (ratio of CC50 to EC50): DENV-2
JEV = assay: organism not typed; assay type: cell-based, JEV strain SA14-14-2; details: read-out: EC50 against JEV
DENV-2, ZIKV, and JEV = assay: Viral binding and internalization assays; assay type: cell-based; details: A549 cells, MOI 2, viral RNA by RT-qPCR
DENV-2 [5] = assay: Time-of-drug-addition assay; assay type: cell-based, DENV-2 strain 16681; details: A549 cells, DENV-2 MOI 2, 50 nM, 48 hpi
ZIKV, JEV, and YFV = assay: organism not typed; assay type: cell-based; details: read-out: EC50 against ZIKV, JEV, and YFV, bound stated
DENV-4 = DENV-4 infection, immunofluorescence assay; assay type: cell-based; details: Dengue virus, read-out: EC50 against DENV-4
DENV-1 = assay: microbe, parasite or virus in culture; assay type: cell-based, DENV-1 clone D19044_7M; details: Dengue virus, read-out: EC50 against DENV-1

Chain of V-ATPase (Q9Y487 whole entry, looked up): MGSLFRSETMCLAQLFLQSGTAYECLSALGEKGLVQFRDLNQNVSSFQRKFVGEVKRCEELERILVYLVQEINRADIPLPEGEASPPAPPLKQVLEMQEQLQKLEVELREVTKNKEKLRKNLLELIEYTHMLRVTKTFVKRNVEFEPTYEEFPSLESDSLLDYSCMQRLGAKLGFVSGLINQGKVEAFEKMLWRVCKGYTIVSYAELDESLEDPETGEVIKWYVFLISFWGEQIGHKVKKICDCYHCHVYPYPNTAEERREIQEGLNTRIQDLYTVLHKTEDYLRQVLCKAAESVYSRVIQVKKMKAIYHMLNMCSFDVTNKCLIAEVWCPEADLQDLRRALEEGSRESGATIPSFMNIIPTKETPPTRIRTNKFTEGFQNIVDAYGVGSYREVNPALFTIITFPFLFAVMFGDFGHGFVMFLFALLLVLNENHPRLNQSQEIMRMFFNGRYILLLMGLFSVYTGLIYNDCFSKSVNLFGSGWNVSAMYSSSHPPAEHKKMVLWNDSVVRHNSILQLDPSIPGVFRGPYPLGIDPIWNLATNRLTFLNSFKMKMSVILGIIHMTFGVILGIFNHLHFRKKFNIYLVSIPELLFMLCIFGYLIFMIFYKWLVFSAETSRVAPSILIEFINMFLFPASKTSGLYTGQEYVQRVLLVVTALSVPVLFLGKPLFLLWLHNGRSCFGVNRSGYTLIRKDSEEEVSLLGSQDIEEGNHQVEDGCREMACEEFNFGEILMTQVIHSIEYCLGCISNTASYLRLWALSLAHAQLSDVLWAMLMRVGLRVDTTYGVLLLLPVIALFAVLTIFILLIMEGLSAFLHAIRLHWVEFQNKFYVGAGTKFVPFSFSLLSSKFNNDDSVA

## COc1cc2c(OCC#N)c3c(c(-c4ccc5c(c4)OCO5)c2cc1OC)C(=O)OC3 [Compound C156-P1]
HUVEC cells
  Concentration tolerable for cytotoxicity: < 62.5 nM
SeV
  Inhibition of SeV infection (viral NP mRNA): did not inhibit SeV infection
In vitro
  CC50: 431 nM
VSV-eGFP
  EC50: 9.27 nM
DENV-3; DENV3, A549, 48 h
  EC50: 4.84 nM
DENV-3; DENV3, Vero, 48 h
  EC50: 4.93 nM
ATP6V0A2
  ATP6V0A2 mRNA expression: decrease in ATP6V0A2 mRNA expression
DENV-2 [1]; DENV2, A549, 48 h, read-out: EC50 against DENV-2
  EC50: 1.36 nM
DENV-2 [1]; DENV2, HUVEC, 48 h, read-out: EC50 against DENV-2
  EC50: 1.28 nM
DENV-2 [1]; DENV2, Huh-7, 48 h, read-out: EC50 against DENV-2
  EC50: 4.45 nM
DENV-2 [1]; DENV2, Vero, 48 h, read-out: EC50 against DENV-2
  EC50: 3.78 nM
DENV-2 [1]; DENV2, read-out: EC50 against DENV-2, bound stated in text
  EC50: < 5 nM
HCV
  EC50: 5.13 nM
V-ATPase
  V-ATPase activity: significantly reduced V-ATPase activity
YFV; A549, 48 h
  EC50: 5.54 nM
YFV; Vero, 48 h
  EC50: 3.94 nM
DENV-2 [2]
  Colocalization between DENV E protein and Rab7A: significantly enhanced the colocalization between DENV E protein and Rab7A
DENV-2 [3]
  Body weight of DENV-2-infected mice: mitigated the decline in body weight
DENV-2 [3]; days 3, 5, and 7 post-infection, RT-qPCR
  DENV-2 RNA load in blood: markedly decreased DENV-2 in the blood
DENV-2 [3]; DENV-2 1 × 10^6 PFU i.p., until day 15
  Survival rate: 60%
HSV-1-eGFP
  EC50: 6.21 nM
Ad5-eGFP
  Mean fluorescence intensity (MFI) of Ad5-eGFP within the cells: slightly increased
  Number of Ad5-eGFP-positive cells versus DMSO: no significant difference
DENV-2 [4]; A549 cells
  SI (ratio of CC50 to EC50): 292.65
DENV-2 [4]; A549 cells, MOI = 2, 50 nM, 24, 36, and 48 hpi, focus-forming assay
  Extracellular DENV-2 viral titers versus DMSO: significantly decreased
DENV-2 [4]; A549 cells, MOI = 2, 48 h, indicated concentrations
  DENV-2 infection (NS3 protein, Western blot): decreased with increasing concentrations of C156-P1
DENV-2 [4]; HUVEC cells
  SI (ratio of CC50 to EC50): 142.42
DENV-2 [4]; Huh7 cells
  SI (ratio of CC50 to EC50): 110.09
DENV-2 [4]; Vero cells
  SI (ratio of CC50 to EC50): 113.94
JEV; A549, 48 h
  EC50: 2.63 nM
JEV; Vero, 48 h
  EC50: 2.84 nM
DENV-2, ZIKV, and JEV
  Effect on internalization or binding steps of DENV-2, ZIKV, and JEV: did not exhibit inhibitory effects
DENV-2 [5]
  Intracellular viral RNA, NS3 protein and extracellular titers, before-, during- and after-incubation groups versus DMSO: significantly reduced levels
ZIKV, JEV, and YFV
  EC50: < 6 nM
DENV-4; DENV4, A549, 48 h
  EC50: 5.31 nM
DENV-4; DENV4, Vero, 48 h
  EC50: 5.53 nM
DENV-1; DENV1, A549, 48 h
  EC50: 8.38 nM
DENV-1; DENV1, Vero, 48 h
  EC50: 5.76 nM
